Reference: patent US11925643B2, “Toll-like receptor 4 (TLR4) inhibitors and use thereof” (MOR RESEARCH APPLICATIONS LTD., priority 2018, dated 2024)
Residues, ends and D or L forms follow the SMILES beside them.

How the values were obtained:
[1] = test system: TLR4 mRNA; test: TLR4 mRNA level by RT-qPCR in hypoxic cardiomyocytes; assay type: cell-based; settings: hypoxic conditions
Procedure: (§1) Real-time RT-PCR experiments were performed in duplicates on an ABI 7900 instrument (Applied Biosystems™) using Taqman™ Master Mix (Applied Biosystems™). The average threshold cycles (Ct) of the duplicates were used to calculate the relative expression levels of the following genes: TLR4 (Applied Biosystems™ assay primer ID: Mm00569848_m1 Tlr4), TLR2 (assay primer ID: Mm01769726_m1 Tlr2), TNF-α (assay primer ID: Mm00443260_g1 Tnf) and IL-1β (assay primer ID: Mm00434228_m1 II1b) in vitro and in vivo following hypoxia or ischemia, respectively. The reference gene was TBP and the primer used was derived from mouse TATA-box binding protein (Applied Biosystems™ assay primer ID: Mm00446973_m1 Tbp). Amounts of TLR2, TLR4, TNF-α and IL-1β mRNAs in each sample were calculated relative to TBP mRNA, based on the corresponding Cts, as Relative Quantity (RQ) values, and normalized taking as 1 a randomly selected sample of the control group (TBP mRNA). Calculation were performed using the Applied Biosystems Analysis™ software (StepOnePlus V2.2.2). All mRNA scores are presented in arbitrary units.
Next, peptidomimetics of SEQ ID NOs:1 and 2 were tested for their ability to affect the expression of TLR4. The level of TLR4 mRNA was measured by real-time reverse transcriptase polymerase chain reaction (RT-qPCR) method as described in Materials and Methods. The possible effect of both compounds on expression levels of TLR2 mRNA was used as a negative control.

[2] = test system: C57BL mice; test: Survival after ischemia induction (MI mice model); assay type: in vivo; settings: 0.3 mg/kg 1 hour after ischemia induction; 7 days; 12 mice
Procedure: Mice were anesthetized (with a mixture of 100 mg/kg ketamine and 10 mg/kg xylazine), intubated and ventilated with air until spontaneous breathing commenced. The left anterior descending artery (LAD) was ligated with one single stitch, forming an ischemia that can be observed almost immediately. By closing the LAD, no further blood flow is permitted in that area, while the surrounding myocardial tissue is almost not affected. This surgical procedure imitates the pathobiological and pathophysiological aspects occurring in infarction-related myocardial ischemia.
Real time reverse transcriptase PCR (RT-qPCR) was conducted to identify the effect of a disclosed decoy peptide on TLR-mediated induction of the inflammatory cytokine TNF-α. The effect of an exemplary decoy peptide PM6 (0.3 mg/kg; administered 1 hour after MI induction) on TNF-α mRNA expression in mice myocardium was assessed 24 h and 7 days after ischemia induction.
On the other hand, 5 out of 12 untreated mice died, which accounts for a survival rate of 58% after ischemia for the untreated mice.

[3] = test system: IL-1β mRNA; test: IL-1β mRNA level by RT-qPCR in hypoxic cardiomyocytes; assay type: cell-based; settings: hypoxic conditions
Procedure: as §1, with “Calculation were performed using the Applied Biosystems Analysis™ software (StepOnePlus V2.2.2). All mRNA scores are presented in arbitrary units.” left out
Decoy peptides represented by compounds PM1-PM10 were tested in vitro for their ability to decrease the level of CK and LDH released by stressed cardiomyocytes following exposure to LPS or hypoxic stimulation, and further evaluated for their ability to affect the level of IL-1β and TLR4 mRNA, and expression of IκB and TLR4 proteins, according to the protocols described in Materials and Methods and in Example 5 herein above.

[4] = molecular target: T1, TLR4 (Homo sapiens, UniProt O00206); test: FACS analysis of TLR4 expressed by macrophages exposed to LPS; assay type: cell-based; settings: 10 μM
T1 construct: FACS analysis to test the expression of TLR4 protein by macrophages under LPS treatment; endogenous in cells; host or cells: human peripheral-blood monocytes differentiated into macrophages with M-CSF
T1 sequence (O00206 24-839): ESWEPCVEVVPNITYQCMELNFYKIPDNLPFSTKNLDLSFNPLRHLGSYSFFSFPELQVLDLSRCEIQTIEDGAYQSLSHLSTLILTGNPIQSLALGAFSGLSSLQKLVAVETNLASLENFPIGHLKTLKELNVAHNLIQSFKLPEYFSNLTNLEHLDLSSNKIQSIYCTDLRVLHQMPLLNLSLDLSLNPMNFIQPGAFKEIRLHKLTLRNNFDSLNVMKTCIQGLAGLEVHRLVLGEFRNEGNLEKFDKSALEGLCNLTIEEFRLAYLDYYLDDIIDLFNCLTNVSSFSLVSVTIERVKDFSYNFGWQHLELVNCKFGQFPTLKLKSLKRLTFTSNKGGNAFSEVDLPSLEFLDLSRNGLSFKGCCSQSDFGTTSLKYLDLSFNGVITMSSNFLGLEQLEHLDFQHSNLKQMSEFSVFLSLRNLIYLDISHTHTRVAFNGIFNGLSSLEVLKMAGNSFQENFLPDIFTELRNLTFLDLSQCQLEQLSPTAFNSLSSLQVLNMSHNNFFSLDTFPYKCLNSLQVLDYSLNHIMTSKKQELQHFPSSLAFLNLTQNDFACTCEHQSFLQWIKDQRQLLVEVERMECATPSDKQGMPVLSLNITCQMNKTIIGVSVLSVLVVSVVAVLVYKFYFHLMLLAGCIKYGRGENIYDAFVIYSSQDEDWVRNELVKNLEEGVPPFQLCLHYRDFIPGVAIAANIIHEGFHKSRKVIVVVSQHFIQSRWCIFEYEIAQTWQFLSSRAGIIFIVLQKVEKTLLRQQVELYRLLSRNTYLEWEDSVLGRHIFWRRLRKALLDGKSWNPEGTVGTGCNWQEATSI
Procedure: Flow cytometry is an analytical cell-biology technique that utilizes light to count and profile cells in a heterogenous fluid mixture. Flow cytometry analysis was used to evaluate binding of antibodies to TLR4 presenting cells. In this assay, an anti-TLR4 antibody was added to a monocytes suspension and cells which bound the antibody were visualized by a fluorescently labeled secondary antibody that bound to the anti-TLR4 antibody (Ab). Accordingly, samples were first “labeled” with the anti-TLR4 antibody, then incubated with Fluor® 488 conjugated to a secondary Ab for TLR4 (CD284) positive cells visualization.
In order to confirm the specificity of binding, and further in order to correct for non-specific or background staining, isotypes control mouse IgGs were added to cell suspensions at the same concentration as the anti-TLR4 Abs. To deduct the non-specific or background staining from the positive staining due to direct Ab binding to the antigen, the level of background staining was assessed by the use of the same fluorochrome as that used for staining the anti-TLR4 Ab.
Peripheral blood (30 ml) was obtained for the isolation of monocytes. Monocytes were purified by density gradient centrifugation as described above, and/or by adherence to plastic in RPMI 1640 medium supplemented with 10% fetal bovine serum (FBS) and antibiotics. Peripheral blood mononuclear cells (PBMCs) (10^6 cells/ml) were first seeded into 24-well plates (0.5 ml per well), after 2 hours, non-adherent cells were removed by several washes with warm PBS.
Monocytes freshly isolated either by density gradient centrifugation by adherence differentiated into macrophages in complete RPMI 1640 medium supplemented with human recombinant macrophage colony stimulating factor (100 ng/ml) for 6 days. To confirm macrophage cell lineage, direct immunostaining was performed with an antibody directed against CD11b/mac1 (Biolegend® Inc., San Diego, Calif., USA). Eighty percent (80%) of positive staining was observed by flow cytometry analysis. The proportion of TLR4 in this separated cell fraction was examined by FACS analysis using, as isotype control, mouse IgG2a IsoControl (eBioscience™ #53-4724-80), and mouse anti-human CD284 Alexa Fluor® 488 Clone FITA125 secondary Ab (Isotype IgG2a. eBioscience™ #53-9917-41), which recognizes the human TLR4 (also known as CD284) cell surface antigen. Cells were analyzed in a BC Gallios Flow Cytometer (Beckman Coulter, Indianapolis Ind., USA) and were initially gated on the basis of forward and side scatter characteristics. Kaluza Software was used to analyze the results. Results are expressed as mean fluorescence intensity (MFI) and also as normalized to control. […]

[5] = test system: TLR2 mRNA; test: TLR2 mRNA level by RT-qPCR in hypoxic cardiomyocytes (negative control); assay type: cell-based; settings: hypoxic conditions
Procedure: as §1
Next, peptidomimetics of SEQ ID NOs:1 and 2 were tested for their ability to affect the expression of TLR4. The level of TLR4 mRNA was measured by real-time reverse transcriptase polymerase chain reaction (RT-qPCR) method as described in Materials and Methods. […]

CCCCCCCCNc1nc(=O)n(Cc2ccccc2)cc1C [PM6, 1-benzyl-5-methyl-4-(octylamino)pyrimidin-2(1H)-one]
inhibition of TLR4 mRNA production [1]: ~3.3 fold
survival rate [2]: 100%
inhibition of IL-1β mRNA production [3]: ~12 fold

CC[C@H](C)[C@H](NC(C)=O)C(=O)N[C@H](C(=O)N[C@@H](Cc1ccccc1)C(=O)N[C@@H](C)C(N)=O)C(C)C [SEQ ID NO:1, (2S,3S)-2-acetamido-N-((S)-1-(((S)-1-(((S)-1-amino-1-oxopropan-2-yl)amino)-1-oxo-3-phenylpropan-2-yl)amino)-3-methyl-1-oxobutan-2-yl)-3-methylpentanamide] (Ac-IVFA-NH2)
TLR4 expression level ([4]; 30 min before LPS (100 ng/ml or 20 μg/ml), 4 hours): toward baseline levels
lowering the expression of TLR4 in the presence of LPS, compared with SEQ ID NO: 25 ([4]; low and high LPS): more effective
TLR4 mRNA expression level [1]: significantly decreased
TLR2 mRNA expression level [5]: relatively unaffected
